Laboratory results from BindingDB's records for doi:10.1021/acs.jmedchem.6b00275 (University of Washington, 2016).
pIC50: −log10 of the molar value.

Key:
Cytochrome P450 3A4 = Cytochrome P450 3A4 (Homo sapiens, UniProt P08684); test: Inhibition of CYP3A4 in human liver microsomes using isoform-specific probe substrates in presence of NADPH-generating system by LC-MS analysis
Cytochrome P450 1A2 = molecular target: T1, Cytochrome P450 1A2 (Homo sapiens, UniProt P05177); test: Inhibition of CYP1A2 in human liver microsomes using isoform-specific probe substrate in presence of NADPH-generating system by LC-MS analysis
T1 sequence (P05177 whole entry): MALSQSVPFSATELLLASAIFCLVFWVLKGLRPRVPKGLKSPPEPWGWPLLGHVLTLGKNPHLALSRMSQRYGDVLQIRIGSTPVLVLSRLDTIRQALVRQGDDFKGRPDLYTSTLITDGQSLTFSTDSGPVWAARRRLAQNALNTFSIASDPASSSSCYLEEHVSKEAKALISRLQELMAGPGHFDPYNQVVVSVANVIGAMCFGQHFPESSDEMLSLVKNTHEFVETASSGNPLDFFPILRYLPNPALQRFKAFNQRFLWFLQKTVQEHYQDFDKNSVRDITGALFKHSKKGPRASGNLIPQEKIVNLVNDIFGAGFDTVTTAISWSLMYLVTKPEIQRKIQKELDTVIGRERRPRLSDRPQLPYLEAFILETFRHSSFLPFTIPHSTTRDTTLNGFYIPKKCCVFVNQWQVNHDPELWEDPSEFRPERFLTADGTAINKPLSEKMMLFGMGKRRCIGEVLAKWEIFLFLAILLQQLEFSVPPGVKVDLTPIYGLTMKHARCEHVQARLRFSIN

Cytochrome P450 2C9 = Cytochrome P450 2C9 (Homo sapiens, UniProt P11712); test: Inhibition of CYP2C9 in human liver microsomes using isoform-specific probe substrates in presence of NADPH-generating system by LC-MS analysis
Cytochrome P450 2D6 = Cytochrome P450 2D6 (Homo sapiens, UniProt P10635); test: Inhibition of CYP2D6 in human liver microsomes using isoform-specific probe substrates in presence of NADPH-generating system by LC-MS analysis
Cytochrome P450 2C8 = molecular target: T2, Cytochrome P450 2C8 (Homo sapiens, UniProt P10632); test: Inhibition of CYP2C8 in human liver microsomes using isoform-specific probe substrates in presence of NADPH-generating system by LC-MS analysis
T2 sequence (P10632 whole entry): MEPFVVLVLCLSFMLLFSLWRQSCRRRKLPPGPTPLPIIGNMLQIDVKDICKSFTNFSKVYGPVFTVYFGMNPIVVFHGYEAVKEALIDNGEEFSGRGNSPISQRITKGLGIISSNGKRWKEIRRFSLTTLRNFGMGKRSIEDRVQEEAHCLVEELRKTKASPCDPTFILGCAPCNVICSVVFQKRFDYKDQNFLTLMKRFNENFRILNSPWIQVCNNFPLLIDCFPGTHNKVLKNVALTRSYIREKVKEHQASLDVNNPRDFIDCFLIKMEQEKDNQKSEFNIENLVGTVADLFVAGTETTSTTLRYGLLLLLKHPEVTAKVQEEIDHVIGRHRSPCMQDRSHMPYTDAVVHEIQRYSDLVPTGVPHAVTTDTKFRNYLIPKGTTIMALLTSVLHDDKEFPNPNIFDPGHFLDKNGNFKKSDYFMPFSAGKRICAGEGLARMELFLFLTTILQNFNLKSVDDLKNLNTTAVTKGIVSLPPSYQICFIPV

[1] = molecular target: Dihydroorotate dehydrogenase (quinone), mitochondrial (Rattus norvegicus, UniProt Q63707); test: Inhibition of N-terminal His6-tagged rat DHODH expressed in Escherichia coli BL21 expressed in Escherichia coli BL21 using L-DHO as substrate and CoQ as co-substrate by DCIP dye based spectrophotometric assay
Cytochrome P450 2B6 = molecular target: T3, Cytochrome P450 2B6 (Homo sapiens, UniProt P20813); test: Inhibition of CYP2B6 in human liver microsomes using isoform-specific probe substrates in presence of NADPH-generating system by LC-MS analysis
T3 sequence (P20813 whole entry): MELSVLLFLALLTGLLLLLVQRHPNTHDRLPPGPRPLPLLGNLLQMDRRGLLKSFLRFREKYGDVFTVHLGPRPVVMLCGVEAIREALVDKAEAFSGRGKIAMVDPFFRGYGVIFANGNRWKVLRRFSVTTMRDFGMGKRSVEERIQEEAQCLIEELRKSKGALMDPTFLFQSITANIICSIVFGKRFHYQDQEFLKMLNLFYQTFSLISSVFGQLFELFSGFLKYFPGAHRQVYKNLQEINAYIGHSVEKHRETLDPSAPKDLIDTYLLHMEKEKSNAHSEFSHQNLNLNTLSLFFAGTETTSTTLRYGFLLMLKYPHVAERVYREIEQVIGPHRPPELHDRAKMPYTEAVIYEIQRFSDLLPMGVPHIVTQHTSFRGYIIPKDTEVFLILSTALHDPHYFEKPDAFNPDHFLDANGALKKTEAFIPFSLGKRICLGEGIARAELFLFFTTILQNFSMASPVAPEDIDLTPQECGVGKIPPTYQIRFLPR

Cytochrome P450 2C19 = Cytochrome P450 2C19 (Homo sapiens, UniProt P33261); test: Inhibition of CYP2C19 in human liver microsomes using isoform-specific probe substrates in presence of NADPH-generating system by LC-MS analysis
[2] = molecular target: Dihydroorotate dehydrogenase (quinone), mitochondrial (Homo sapiens, UniProt Q02127); test: Inhibition of N-terminal His6-tagged human DHODH expressed in Escherichia coli BL21 using L-DHO as substrate and CoQ as co-substrate by DCIP dye based spectrophotometric assay
Chain of Dihydroorotate dehydrogenase (quinone), mitochondrial (Homo sapiens, UniProt Q02127) (Q02127 whole entry): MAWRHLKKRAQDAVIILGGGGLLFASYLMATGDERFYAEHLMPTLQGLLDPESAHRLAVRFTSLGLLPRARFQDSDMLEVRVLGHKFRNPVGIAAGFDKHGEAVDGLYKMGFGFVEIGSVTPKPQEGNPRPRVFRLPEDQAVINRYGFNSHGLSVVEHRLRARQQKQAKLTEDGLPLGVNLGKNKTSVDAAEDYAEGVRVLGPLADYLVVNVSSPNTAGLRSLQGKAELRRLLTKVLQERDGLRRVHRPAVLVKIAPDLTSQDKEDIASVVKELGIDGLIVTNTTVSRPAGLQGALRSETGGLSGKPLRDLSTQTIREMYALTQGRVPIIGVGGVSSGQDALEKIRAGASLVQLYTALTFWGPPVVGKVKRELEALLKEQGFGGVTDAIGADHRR

Chain of Cytochrome P450 2C9 (P11712 whole entry, canonical isoform): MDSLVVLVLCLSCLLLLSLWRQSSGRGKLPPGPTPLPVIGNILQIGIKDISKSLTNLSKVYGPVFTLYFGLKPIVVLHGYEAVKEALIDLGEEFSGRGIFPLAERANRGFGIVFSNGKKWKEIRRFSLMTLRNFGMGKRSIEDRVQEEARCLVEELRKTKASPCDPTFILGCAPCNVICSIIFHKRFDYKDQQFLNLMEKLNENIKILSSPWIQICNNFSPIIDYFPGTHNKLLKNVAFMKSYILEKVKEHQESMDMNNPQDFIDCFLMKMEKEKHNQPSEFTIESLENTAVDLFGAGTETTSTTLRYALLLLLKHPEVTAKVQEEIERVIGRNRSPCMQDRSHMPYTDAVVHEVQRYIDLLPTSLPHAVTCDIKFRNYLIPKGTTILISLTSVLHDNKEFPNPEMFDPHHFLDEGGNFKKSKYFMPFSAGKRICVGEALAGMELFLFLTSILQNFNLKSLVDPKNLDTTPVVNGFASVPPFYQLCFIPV
Chain of Cytochrome P450 2D6 (P10635 whole entry, canonical isoform): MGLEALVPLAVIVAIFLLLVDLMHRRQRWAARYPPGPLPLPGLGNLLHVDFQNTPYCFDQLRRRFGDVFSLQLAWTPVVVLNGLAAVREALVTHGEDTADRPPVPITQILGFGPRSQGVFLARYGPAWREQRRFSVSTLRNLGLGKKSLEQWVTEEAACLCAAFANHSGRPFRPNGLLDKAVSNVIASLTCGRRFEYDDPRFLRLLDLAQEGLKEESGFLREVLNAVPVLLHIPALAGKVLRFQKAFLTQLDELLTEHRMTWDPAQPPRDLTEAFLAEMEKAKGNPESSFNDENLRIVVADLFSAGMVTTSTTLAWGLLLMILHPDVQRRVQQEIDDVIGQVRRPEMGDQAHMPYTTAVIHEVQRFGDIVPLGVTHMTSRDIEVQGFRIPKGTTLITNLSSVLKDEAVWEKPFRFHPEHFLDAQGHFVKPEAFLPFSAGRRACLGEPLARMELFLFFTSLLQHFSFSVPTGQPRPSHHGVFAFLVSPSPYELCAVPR
Chain of Dihydroorotate dehydrogenase (quinone), mitochondrial (Rattus norvegicus, UniProt Q63707) (Q63707 whole entry, canonical isoform): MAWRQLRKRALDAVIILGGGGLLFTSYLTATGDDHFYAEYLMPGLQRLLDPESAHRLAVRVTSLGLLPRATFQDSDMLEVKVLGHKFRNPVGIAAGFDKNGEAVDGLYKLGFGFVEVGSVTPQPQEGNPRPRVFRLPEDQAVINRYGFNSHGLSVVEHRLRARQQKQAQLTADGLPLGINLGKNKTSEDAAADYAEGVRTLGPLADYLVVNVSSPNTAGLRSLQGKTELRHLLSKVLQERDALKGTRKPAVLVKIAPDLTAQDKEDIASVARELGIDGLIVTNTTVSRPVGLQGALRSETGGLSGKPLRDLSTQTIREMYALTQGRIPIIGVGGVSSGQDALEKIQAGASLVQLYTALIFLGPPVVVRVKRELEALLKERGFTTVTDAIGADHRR
Chain of Cytochrome P450 2C19 (P33261 whole entry, canonical isoform): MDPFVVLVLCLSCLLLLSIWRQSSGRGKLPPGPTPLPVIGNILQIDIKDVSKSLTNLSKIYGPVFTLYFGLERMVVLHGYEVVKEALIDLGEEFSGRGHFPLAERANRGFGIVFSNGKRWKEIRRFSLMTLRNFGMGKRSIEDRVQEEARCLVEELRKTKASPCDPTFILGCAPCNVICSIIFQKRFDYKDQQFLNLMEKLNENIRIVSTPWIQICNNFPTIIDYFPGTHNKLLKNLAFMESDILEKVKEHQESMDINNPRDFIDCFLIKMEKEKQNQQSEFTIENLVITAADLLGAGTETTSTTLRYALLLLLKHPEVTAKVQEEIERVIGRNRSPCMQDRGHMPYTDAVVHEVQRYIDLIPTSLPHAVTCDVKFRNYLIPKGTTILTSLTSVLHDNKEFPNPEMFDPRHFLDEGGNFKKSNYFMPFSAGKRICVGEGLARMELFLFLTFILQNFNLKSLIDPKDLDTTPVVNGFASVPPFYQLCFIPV
Chain of Cytochrome P450 3A4 (P08684 whole entry, canonical isoform): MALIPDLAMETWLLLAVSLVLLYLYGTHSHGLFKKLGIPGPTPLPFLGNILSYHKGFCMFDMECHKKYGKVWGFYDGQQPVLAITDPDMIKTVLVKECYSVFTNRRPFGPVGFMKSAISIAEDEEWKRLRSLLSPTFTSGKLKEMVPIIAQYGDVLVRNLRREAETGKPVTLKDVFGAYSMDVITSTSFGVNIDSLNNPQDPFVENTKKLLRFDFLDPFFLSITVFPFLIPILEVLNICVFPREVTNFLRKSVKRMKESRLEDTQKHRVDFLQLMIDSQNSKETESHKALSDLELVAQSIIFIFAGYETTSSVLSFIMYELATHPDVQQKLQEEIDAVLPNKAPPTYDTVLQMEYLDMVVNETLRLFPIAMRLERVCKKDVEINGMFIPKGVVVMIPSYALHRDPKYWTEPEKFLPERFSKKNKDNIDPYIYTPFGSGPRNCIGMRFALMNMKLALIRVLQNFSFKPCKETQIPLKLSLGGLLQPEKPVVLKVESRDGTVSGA

| Structure (SMILES) | pIC50 (Cytochrome P450 3A4) | pIC50 (Cytochrome P450 1A2) | pIC50 (Cytochrome P450 2C9) | pIC50 (Cytochrome P450 2D6) | pIC50 (Cytochrome P450 2C8) | pIC50 [1] | pIC50 (Cytochrome P450 2B6) | pIC50 (Cytochrome P450 2C19) | pIC50 [2] |
| --- | --- | --- | --- | --- | --- | --- | --- | --- | --- |
| Cc1cc(N[C@H]2CCc3ccc(Br)cc3C2)n2nc(C(C)(F)F)nc2n1 | < 4.70 | < 4.70 | 5.51 | 5.41 | 4.77 | < 4.00 | < 4.70 | < 4.70 |  |
| Cc1cc(NC2CCc3cc(Cl)ccc3C2)n2nc(C(C)(F)F)nc2n1 (stereo unspecified) | < 4.70 | < 4.70 | 4.99 | 4.70 | < 4.70 | < 4.00 | 4.74 |  | < 4.00 |
| COc1ccc2c(c1)CC(Nc1cc(C)nc3nc(C(C)(F)F)nn13)CC2 (stereo unspecified) |  |  |  |  |  |  |  |  | < 4.00 |
| Cc1cc(NC2CCc3ccc(Cl)cc3C2)n2nc(C(F)(F)F)nc2n1 (stereo unspecified) |  |  |  |  |  |  |  |  | < 4.30 |
| Cc1cc(NC2CCc3cc(Br)ccc3C2)n2nc(C(C)(F)F)nc2n1 (stereo unspecified) |  | < 4.70 | 5.06 | < 4.70 | 4.73 | < 4.00 | 4.75 | < 4.70 | < 4.00 |
